Test results as given in patent publication US20260337211A1, “IP5 SUBSTITUTED COMPOUNDS” (SANIFIT THERAPEUTICS, S.A., priority 2022, published 2026).

assay: In vitro inhibition of calcium phosphate crystallization in human plasma (spectrophotometric, 550 nm); assay type: biochemical; conditions: 0-100 μM compound, 1.5 mM phosphate and 12.5 mM calcium, pH 7.4, 30 min at rt, slope between 6 and 24 min, read-out: Relative Potency (EC50)
Description: The in vitro efficacy of the IP5 substituted compounds (e.g., Compounds 1 to 32) of the invention on the inhibition of calcium phosphate crystallization in human plasma samples was evaluated according to a spectrophotometric assay previously described in the art (Ferrer M, et al., Sci Rep 2017; 7:6858, doi:10.1038/s41598-017-07203-x).
A 96-well plate was employed. Plasma was spiked (1 volume of the IP5 substituted compounds of the invention per 19 volumes of plasma) with increasing concentrations of the derivatives in the range of 0-100 μM. Plasma was then centrifuged at 10,000 g at rt and subsequently mixed with a mixture of 5 mM hydrogen phosphate and 41.67 mM calcium to attain final concentrations of 1.5 mM phosphate and 12.5 mM calcium, respectively. All reagent solutions were filtered, and pH adjusted to 7.4.
Crystallization of calcium phosphate was monitored spectrophotometrically for 30 min at rt by measuring the increments in absorbance at 550 nm using the Biotek Powerwave XS Microplate spectrophotometer (BioTek Instruments, Inc., Winooski, VT, US). The plate was incubated at rt in an orbital shaker and absorbance measured every 3 min.
Plasma crystallization was assessed based on slope measurement in the linear range between 6 and 24 min from plots of increase in absorbance versus logarithm of time. The efficacy of different myo-inositol phosphates derivatives in preventing in vitro formation of calcium phosphate crystals was assessed in human plasma samples using the slopes obtained between 6- and 24-min. Inhibition of crystallization was measured by comparing the slopes of the control sample (blank plasma) with those of samples containing the inhibitor as shown below: […]

| Substance | EC50 |
| --- | --- |
| rac-1-O-(5-(4-(Methoxymethyl)-1H-1,2,3-triazol-1-yl)pentyl)-myo-inositol-2,3,4,5,6-pentakis(phosphate) decasodium salt [Compound 52] | 5 to 10 µM |
| rac-1-O-(5-Acetamidopentyl)-myo-inositol-2,3,4,5,6-pentakis(phosphate) decasodium salt [Compound 49] | 5 to 10 µM |
| rac-1-O-(9-Methoxynonyl)-myo-inositol-2,3,4,5,6-pentakis(phosphate) decasodium salt [Compound 47] | ≤ 5 µM |
| rac-1-O-((1-(2-(Metoxycarbonyl)ethyl)-1H-1,2,3-triazol-4-yl)methyl)-myo-inositol-2,3,4,5,6-pentakis(phosphate) undecasodium salt [Compound 53] | 5 to 10 µM |
| rac-1-O-Propyl-myo-inositol-2,3,4,5,6-pentakis(phosphate) decasodium salt [Compound 32] | ≤ 5 µM |
| rac-4-O-(2-(4-Acetylpiperazin-1-yl)ethyl)-myo-inositol-1,2,3,5,6-pentakis(phosphate) decasodium salt [Compound 5] | ≤ 5 µM |
| rac-4-O-(5-Acetamidopentyl)-myo-inositol-1,2,3,5,6-pentakis(phosphate) decasodium salt [Compound 19] | 5 to 10 µM |
| rac-4-O-(5-Hydroxypentyl)-myo-inositol-1,2,3,5,6-pentakis(phosphate) decasodium salt [Compound 2] | ≤ 5 µM |
| rac-4-O-(5-Methoxypentyl)-myo-inositol-1,2,3,5,6-pentakis(phosphate) decasodium salt [Compound 3] | ≤ 5 µM |
| rac-4-O-(6,6,6-Trifluorohexyl)-myo-inositol-1,2,3,5,6-pentakis(phosphate) decasodium salt [Compound 13] | ≤ 5 µM |
| rac-4-O-(6-(4-(carboxy)-1H-1,2,3-triazol-1-yl)hexyl)-myo-inositol-1,2,3,5,6-pentakis(phosphate) undecasodium salt [Compound 26] | > 10 µM |
| rac-4-O-(6-Aminohexyl)-myo-inositol-1,2,3,5,6-pentakis(phosphate) decasodium salt [Compound 28] | ≤ 5 µM |
| rac-4-O-(7-Methoxyheptyl)-myo-inositol-1,2,3,5,6-pentakis(phosphate) decasodium salt [Compound 23] | 5 to 10 µM |
| rac-4-O-(10-Carboxyldecyl)-myo-inositol-1,2,3,5,6-pentakis(phosphate) undecasodium salt [Compound 20] | > 10 µM |
| rac-4-O-(10-Hydroxydecyl)-myo-inositol-1,2,3,5,6-pentakis(phosphate) decasodium salt [Compound 21] | > 10 µM |
| rac-4-O-Methyl-myo-inositol-1,2,3,5,6-pentakis(phosphate) decasodium salt [Compound 22] | 5 to 10 µM |
| rac-4-O-Pentyl-myo-inositol-1,2,3,5,6-pentakis(phosphate) decasodium salt [Compound 1] | ≤ 5 µM |
| rac-4-O-Propyl-myo-inositol-1,2,3,5,6-pentakis(phosphate) decasodium salt [Compound 24] | ≤ 5 µM |
